“Also recorded” adds a separate entry of the source.
Tests used:
TRPV1 [1] = target: TRPV1 (Homo sapiens, UniProt Q8NER1); details: cited from earlier work
TRPV1 [2] = details: cited from earlier work
TRPV1 [3] = target: T1, TRPV1 (Rattus norvegicus, UniProt O35433); test: Neonatal TRPV1 antagonist pre-treatment before P10 colonic acetic acid; sensitivity to colorectal distention at 8 weeks; assay type: in vivo
T1 construct: endogenous in cells; host or cells: living rats (neonatal and adult); DRG and spinal cord tissue for the expression work
Method: (§1) In the first experiment, 3 groups of 10 neonatal rats were used. While Group 1 received SB-366791, 1.3 mg/kg subcutaneously 30 minutes prior to colonic acetic acid administration. Group 2 received vehicle subcutaneously prior to colonic acetic acid administration, and Group 3 received vehicle prior to colonic saline administration. In the second experiment, 3 groups of 10 neonatal rats were used. All rats received a drug or vehicle subcutaneously 24 hours and 30 minutes prior to colonic acetic acid administration. Group 4 received SB-366791, 2.6 mg/kg, Group 5 received I-RTX, 2 mg/kg, and Group 6 received vehicle. For both experiments, at 8 weeks of age, EMG recordings and abdominal withdrawal reflex grades were simultaneously obtained in response to graded colorectal distention. To test the effect of TRPV1 inhibitors on adults, 2 groups of 10 rats were used: on post-natal day 10, Group 7 received colonic acetic acid, Group 8 received colonic saline. At 7 weeks of age, Groups 7 and 8 were split: half of each group received SB-366791, 1.3 mg/kg, and half vehicle, subcutaneously 30 minutes prior to colorectal distention. After one week of period, vehicle and drug groups were crossed-over and sensitivity to colorectal distention was measured again.
Ten days old rat pups received TRPV1 antagonist or vehicle subcutaneously 30 minutes prior to colon acetic acid infusion and were tested for sensitivity to colorectal distention at 8 weeks of age.
Thus, antagonism of the TRPV1 prior to neonatal administration of acetic acid attenuated the development of sensitivity to colorectal distention.

p38 = details: models of inflammation and neuropathy; cited from earlier work
TRPV1 [4] = details: in vivo; cited from earlier work
[5] = system: voltage-gated Ca++ currents or the hyperpolarization activated current in rat DRG neurons; details: at 1 mM; cited from earlier work
[6] = system: AMPA or NMDA mediated hippocampal synaptic transmission; details: cited from earlier work
[7] = system: 50 receptors of various types; design: dose or concentration left out as unconfirmed; details: cited from earlier work
TRPV1 [8] = target: T1, TRPV1; test: TRPV1 antagonism in adult rats neonatally treated with acetic acid or saline; graded colorectal distention; assay type: in vivo; details: 1.3 mg/kg 30 minutes prior to CRD
Method: as §1
AWR scores of drug and vehicle treated rats as adults within each neonatal treatment group (P10 acetic acid or P10 saline) were compared at each distention pressure by Wilcoxon signed rank test.

MEK = details: cited from earlier work
p38 and ERK = details: peripheral administration; cited from earlier work
TRPV1 [9] = target: T1, TRPV1; test: Neonatal colonic capsaicin infusion; sensitivity to colorectal distention at 7 weeks; assay type: in vivo; details: 0.2 ml of 50 mg/ml into colon at P10, tested at 7 weeks, 20, 40, 60, 80 mm Hg, vs unmanipulated and vehicle
Method: To treat neonatal rats with capsaicin, ten day old rat pups received an infusion of 0.2 mls of 50 mg/ml capsaicin or 0.2 mls vehicle: 10% ethanol, 10% Tween 20, 80% saline or were left unmanipulated. Visceral sensitivity and inflammatory parameters were measured in these rats between 8 and 12 weeks of age. […] After 4 weeks, rats were tested for sensitivity to colorectal distention.
Visceral hypersensitivity was measured by grading the response of rats to colorectal distention as previously described.^11 Briefly, under mild sedation with 1% Brevital (Eli Lily & Co Indianapolis, Ind.) 25 mg/kg i.p.), a flexible balloon (5 cm) constructed from a surgical glove finger attached to a tygon tubing was inserted 8 cm into the descending colon and rectum via the anus and held in place by taping the tubing to the tail. Rats were placed in small Lucite cubicles (20×8×8 cm) (Bioengineering Department, UTMB) and were allowed to adapt for 30 minutes. […] Pressure was measured using a sphygmomanometer connected to a pressure transducer. […] Behavioral responses to colorectal distention were measured by visual observation of the abdominal withdrawal reflex by blinded observer and the assignment of an AWR score as follows: 1=Normal behavior without response 2=Contraction of abdominal muscles; 3=Lifting of abdominal wall; 4=Body arching and lifting of pelvic structures. […]

TRPV1 [10] = target: T2, TRPV1 (Mus musculus, UniProt Q704Y3); details: cited from earlier work
T2 construct: host or cells: colon and jejunal afferent fibre preparations

calcium channels = details: at high concentrations; cited from earlier work
[11] = in vivo; cited from earlier work
[12] = 1.3 mg/kg s.c. 30 minutes prior to P10 acetic acid, tested at 8 weeks, 40, 60 and 80 mm Hg, vs vehicle

Chain of TRPV1 (Homo sapiens, UniProt Q8NER1) (Q8NER1 whole entry, species assumed): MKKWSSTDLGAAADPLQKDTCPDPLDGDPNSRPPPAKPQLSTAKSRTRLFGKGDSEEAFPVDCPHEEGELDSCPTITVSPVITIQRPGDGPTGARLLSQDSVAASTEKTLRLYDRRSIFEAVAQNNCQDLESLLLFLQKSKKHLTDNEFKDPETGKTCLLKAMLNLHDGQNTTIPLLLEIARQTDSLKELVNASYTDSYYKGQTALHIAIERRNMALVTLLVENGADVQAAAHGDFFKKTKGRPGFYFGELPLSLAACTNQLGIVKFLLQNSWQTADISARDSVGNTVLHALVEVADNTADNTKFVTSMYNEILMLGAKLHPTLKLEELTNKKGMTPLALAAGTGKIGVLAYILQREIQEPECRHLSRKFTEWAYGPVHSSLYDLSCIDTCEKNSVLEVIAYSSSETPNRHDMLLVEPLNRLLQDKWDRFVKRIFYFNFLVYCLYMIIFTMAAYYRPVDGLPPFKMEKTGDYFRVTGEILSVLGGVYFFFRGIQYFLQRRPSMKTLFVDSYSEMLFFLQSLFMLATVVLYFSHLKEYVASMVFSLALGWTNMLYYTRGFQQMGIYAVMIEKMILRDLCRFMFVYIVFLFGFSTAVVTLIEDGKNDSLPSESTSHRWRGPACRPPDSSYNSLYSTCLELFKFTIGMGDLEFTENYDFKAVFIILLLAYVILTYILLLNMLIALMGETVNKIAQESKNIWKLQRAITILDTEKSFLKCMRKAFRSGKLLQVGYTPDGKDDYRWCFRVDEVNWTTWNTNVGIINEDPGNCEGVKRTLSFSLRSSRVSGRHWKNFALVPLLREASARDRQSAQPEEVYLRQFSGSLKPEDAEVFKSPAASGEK
T1 sequence (O35433 whole entry): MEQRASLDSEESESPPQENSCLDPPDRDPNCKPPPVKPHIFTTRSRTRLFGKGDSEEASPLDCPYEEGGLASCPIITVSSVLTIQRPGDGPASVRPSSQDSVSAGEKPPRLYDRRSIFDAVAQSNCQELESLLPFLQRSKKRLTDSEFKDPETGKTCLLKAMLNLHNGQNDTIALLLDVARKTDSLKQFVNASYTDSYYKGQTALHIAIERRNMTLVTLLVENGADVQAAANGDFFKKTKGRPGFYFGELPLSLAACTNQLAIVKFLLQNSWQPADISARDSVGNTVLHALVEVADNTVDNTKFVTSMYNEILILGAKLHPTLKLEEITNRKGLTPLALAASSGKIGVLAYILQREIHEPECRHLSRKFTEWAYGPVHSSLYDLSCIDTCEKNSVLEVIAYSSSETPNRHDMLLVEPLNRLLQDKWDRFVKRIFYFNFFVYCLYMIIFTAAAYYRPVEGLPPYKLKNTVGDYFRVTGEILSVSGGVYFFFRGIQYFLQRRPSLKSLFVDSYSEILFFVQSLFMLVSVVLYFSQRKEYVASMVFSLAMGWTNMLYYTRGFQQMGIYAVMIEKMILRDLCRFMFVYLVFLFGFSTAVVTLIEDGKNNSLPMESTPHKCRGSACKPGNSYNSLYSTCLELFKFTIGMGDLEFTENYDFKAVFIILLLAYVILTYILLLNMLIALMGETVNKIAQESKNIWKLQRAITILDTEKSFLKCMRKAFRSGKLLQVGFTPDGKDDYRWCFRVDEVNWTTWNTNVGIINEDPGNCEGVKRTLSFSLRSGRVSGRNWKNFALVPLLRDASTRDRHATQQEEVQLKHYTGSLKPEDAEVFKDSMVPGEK
T2 sequence (Q704Y3 whole entry): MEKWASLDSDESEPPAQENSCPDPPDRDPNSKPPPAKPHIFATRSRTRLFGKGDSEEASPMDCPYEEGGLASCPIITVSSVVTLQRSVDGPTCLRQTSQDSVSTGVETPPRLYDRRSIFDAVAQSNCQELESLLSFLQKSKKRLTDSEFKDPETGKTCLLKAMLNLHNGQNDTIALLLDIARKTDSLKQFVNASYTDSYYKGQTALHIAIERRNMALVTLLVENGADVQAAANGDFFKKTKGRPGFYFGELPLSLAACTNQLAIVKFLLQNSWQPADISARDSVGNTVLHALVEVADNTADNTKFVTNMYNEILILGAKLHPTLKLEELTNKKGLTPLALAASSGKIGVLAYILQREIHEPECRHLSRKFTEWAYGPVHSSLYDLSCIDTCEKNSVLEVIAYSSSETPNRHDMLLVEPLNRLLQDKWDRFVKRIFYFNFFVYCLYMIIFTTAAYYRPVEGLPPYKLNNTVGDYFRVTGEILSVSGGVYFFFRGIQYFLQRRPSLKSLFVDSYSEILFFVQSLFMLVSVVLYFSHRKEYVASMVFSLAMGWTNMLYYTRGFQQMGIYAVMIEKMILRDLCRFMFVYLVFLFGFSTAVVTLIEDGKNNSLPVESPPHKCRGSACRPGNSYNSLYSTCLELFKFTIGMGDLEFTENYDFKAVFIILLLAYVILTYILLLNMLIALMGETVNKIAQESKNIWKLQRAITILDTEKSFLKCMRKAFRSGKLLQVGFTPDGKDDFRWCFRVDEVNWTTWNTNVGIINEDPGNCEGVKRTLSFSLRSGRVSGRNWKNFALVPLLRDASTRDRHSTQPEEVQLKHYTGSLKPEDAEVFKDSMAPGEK

## C=C(C)[C@]12C[C@@H](C)[C@@]34O[C@](Cc5ccccc5)(O[C@@H]1[C@@H]3C=C(COC(=O)Cc1cc(I)c(O)c(OC)c1)C[C@]1(O)C(=O)C(C)=C[C@@H]41)O2 [I-RTX, 5′Iodoresiniferatoxin]
TRPV1 [1]
  potency and selectivity compared with capsezapine: more potent and selective antagonists
TRPV1 [2]
  blocking TRPV1-mediated effects in several animal models in vivo: effective in blocking TRPV1-mediated effects
TRPV1 [3]; 2 mg/kg s.c. 24 hours and 30 minutes prior to P10 acetic acid, 8 weeks, 10, 20 and 40 mm Hg
  sensitivity to colorectal distention by AWR grade: reduced sensitivity
TRPV1 [3]; 2 mg/kg s.c. 24 hours and 30 minutes prior to P10 acetic acid, 8 weeks, 10, 20 and 40 mm Hg, listed as 1-RTX
  sensitivity to colorectal distention by AWR grade: significant decreased sensitivity
TRPV1 [3]; 2 mg/kg s.c. 24 hours and 30 minutes prior to P10 acetic acid, 8 weeks, 20, 40, 60 and 80 mm Hg
  sensitivity to colorectal distention by EMG: reduced sensitivity
TRPV1 [3]; 2 mg/kg s.c. 24 hours and 30 minutes prior to P10 acetic acid, 8 weeks, 20, 40, 60 and 80 mm Hg, listed as 1-RTX
  sensitivity to colorectal distention by EMG: significant decreased sensitivity

## C[S+]([O-])c1ccc(-c2nc(-c3ccncc3)c(-c3ccc(F)cc3)[nH]2)cc1 (stereo not drawn) [SB-203580]
p38
  development of behavioral hypersensitivity: blocks the development of behavioral hypersensitivity

## COc1cccc(NC(=O)C=Cc2ccc(Cl)cc2)c1 [SB-366791, N-(3-Methoxyphenyl)-4-chlorocinnamide]
TRPV1 [4]
  capsaicin effects on thermoregulation: block capsaicin effects on thermoregulation
[5]
  effect on hyperpolarization activated current: little or no effect
  effect on voltage-gated Ca++ currents: little or no effect
[6]
  effects on AMPA or NMDA mediated hippocampal synaptic transmission: no effects
TRPV1 [1]
  acid-mediated activation: blocks acid-mediated activation
  potency and selectivity compared with capsezapine: more potent and selective antagonists
TRPV1 [1]; competitive antagonist of capsaicin
  Ki: 18 nM
[7]
  effect in in vitro binding assays against 50 receptors of various types: little or no effect
TRPV1 [8]; 10-80 mm Hg
  AWR response to colorectal distention, P10 saline treated adult rats: no significant effect
TRPV1 [8]; 10 and 80 mm Hg
  AWR response to colorectal distention, P10 acetic acid treated adult rats: No significant differences
TRPV1 [8]; 20 mm Hg
  AWR response to colorectal distention, P10 acetic acid treated adult rats: trend towards significance
TRPV1 [8]; 40 and 60 mm Hg, vs vehicle
  AWR response to colorectal distention, P10 acetic acid treated adult rats: reduced sensitivity to CRD
TRPV1 [8]; 40 and 60 mm Hg, vs vehicle, listed as SB-366,791
  AWR response to colorectal distention, P10 acetic acid treated adult rats: significant decline
TRPV1 [3]; [12]
  EMG activity in response to colorectal distention: significantly less
  sensitivity to colorectal distention by AWR grade: significant decreases in sensitivity to colorectal distention
TRPV1 [3]; 2.6 mg/kg s.c. 24 hours and 30 minutes prior to P10 acetic acid, 8 weeks, 10, 20, 40 and 60 mm Hg
  sensitivity to colorectal distention by AWR grade: reduced sensitivity; also recorded: significantly decreased sensitivity
TRPV1 [3]; 2.6 mg/kg s.c. 24 hours and 30 minutes prior to P10 acetic acid, 8 weeks, 20, 40 and 60 mm Hg
  sensitivity to colorectal distention by EMG: reduced sensitivity; also recorded: significantly decreased sensitivity

## N#CC(=C(/N)Sc1ccccc1N)/C(C#N)=C(\N)Sc1ccccc1N [U0126]
MEK; in vivo
  epinephrine induced mechanical hypersensitivity: reduces epinephrine induced mechanical hypersensitivity
MEK; models of inflammation and neuropathic pain
  thermal and mechanical hypersensitivity: attenuates thermal and mechanical hypersensitivity

## COc1cc(CNC(=O)CCCC/C=C/C(C)C)ccc1O [capsaicin]
p38 and ERK
  p38 and ERK activation in dorsal root ganglia neurons: activates p38 and ERK
TRPV1 [9]
  sensitivity to colorectal distention: increased sensitivity
TRPV1 [9]; listed as CAP
  sensitivity to colorectal distention: significantly more sensitive to colorectal distention

## Oc1cc2c(cc1O)CN(C(=S)NCCc1ccc(Cl)cc1)CCC2 [capsazepine]
TRPV1 [10]
  colon afferent fiber responses to stretch: inhibited
  jejunal afferent responses to acid: inhibited
Calcium channels
  calcium channel block: blocks calcium channels at high concentrations
[11]
  pharmacokinetic properties: poor pharmacokinetic properties

— patent publication US20090131302A1, “Transient receptor potential vanilloid 1 and uses thereof” (priority 2007, published 2009)
